Data reported in patent US12606564B2, “Adenosine receptor antagonist compounds” (ILDONG PHARMACEUTICAL CO., LTD., priority 2019, dated 2026).

What was measured:
[1] = target: Human recombinant adenosine A2A receptor (Homo sapiens, UniProt P29274); assay: Human adenosine A2A receptor binding assay with [3H] CGS-21680 (Example 4.2); details: for activity as dual antagonists of both A2A and A1 receptors (in words): summary of Table 5, binding assays of Examples 4.1 and 4.2
Experimental: Test compound is weighed, dissolved in DMSO to make a stock solution of 10 mM, diluted with DMSO to prepare working solutions, then 100-fold diluted to the indicated concentrations. Human recombinant adenosine A2A receptors expressed in HEK-293 cells were used to prepare membranes in incubation buffer (50 mM Tris-HCl, pH 7.4, 10 mM MgCl2, 1 mM EDTA, 2 U/ml Adenosine Deaminase). Test compound or vehicle (2.2 μL) was added in 200 μL of membranes and incubated with 20 μL of 50 nM [^3H] […] Non-specific binding was estimated in the presence of 50 μM NECA (5′-N-ethylcarboxamidoadenosine). The incubation was stopped by vacuum filtration onto 0.3% PEI (polyethylenimine) presoaked GF/B filters using a harvester followed by four washes with ice-cold 50 mM Tris-HCl, pH 7.4, and the radioactivity on GF/B filtermats counted in a scintillation counter (PerkinElmer Topcount™) to determine [^3H] […] Final concentration of vehicle DMSO is 1%.

[2] = target: T1, Human recombinant adenosine A1 receptors (Homo sapiens, UniProt P30542); assay: Human adenosine A1 receptor binding assay with [3H] DPCPX (pyrazolo-pyrimidine compounds, Example 4.1); details: membranes of CHO-K1 cells, read-out: hA1 Ki
T1 construct: expressed in transfected cells; host or cells: CHO-K1, membrane preparation
T1 sequence (P30542 1-326): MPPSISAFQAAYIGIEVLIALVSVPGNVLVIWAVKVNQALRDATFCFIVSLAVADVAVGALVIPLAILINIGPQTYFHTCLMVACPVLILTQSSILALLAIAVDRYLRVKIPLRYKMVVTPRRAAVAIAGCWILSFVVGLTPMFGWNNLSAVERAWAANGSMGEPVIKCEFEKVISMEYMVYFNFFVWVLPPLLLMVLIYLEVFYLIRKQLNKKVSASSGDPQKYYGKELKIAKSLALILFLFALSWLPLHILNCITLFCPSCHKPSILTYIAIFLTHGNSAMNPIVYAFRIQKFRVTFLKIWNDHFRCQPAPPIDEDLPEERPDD
Experimental: Test compound is weighed, dissolved in DMSO to make a stock solution of 10 mM, diluted with DMSO to prepare working solutions, then 100-fold diluted to the indicated concentrations. Human recombinant adenosine A1 receptors expressed in CHO-K1 cells were used to prepare membranes in incubation buffer (20 mM HEPES (4-(2-hydroxyethyl)-1-piperazineethanesulfonic acid) pH 7.4, 10 mM MgCl2, 100 mM NaCl). Test compound or vehicle (2.2 μL) was added in 200 μL of membranes and incubated with 20 μL of 1 nM [^3H] DPCPX (8-cyclopentyl-1,3-dipropylxanthine) for 90 minutes at 25° C. Non-specific binding was estimated in the presence of 100 μM R(−)-PIA ((R)—N-(1-methyl-2-phenylethyl)adenosine). The incubation was stopped by vacuum filtration onto 0.3% PEI (polyethylenimine) presoaked GF/B filters using a harvester followed by four washes with ice-cold 50 mM Tris-HCl, pH 7.4, and the radioactivity on GF/B filtermats counted in a scintillation counter (PerkinElmer Topcount™) to determine [^3H] DPCPX specifically bound. Final concentration of vehicle DMSO is 1%.
Data is fitted using the non-linear curve fitting routines in Meth-IQ software (ID Business Solutions Ltd., UK).

Chain of Human recombinant adenosine A2A receptor (P29274 whole entry): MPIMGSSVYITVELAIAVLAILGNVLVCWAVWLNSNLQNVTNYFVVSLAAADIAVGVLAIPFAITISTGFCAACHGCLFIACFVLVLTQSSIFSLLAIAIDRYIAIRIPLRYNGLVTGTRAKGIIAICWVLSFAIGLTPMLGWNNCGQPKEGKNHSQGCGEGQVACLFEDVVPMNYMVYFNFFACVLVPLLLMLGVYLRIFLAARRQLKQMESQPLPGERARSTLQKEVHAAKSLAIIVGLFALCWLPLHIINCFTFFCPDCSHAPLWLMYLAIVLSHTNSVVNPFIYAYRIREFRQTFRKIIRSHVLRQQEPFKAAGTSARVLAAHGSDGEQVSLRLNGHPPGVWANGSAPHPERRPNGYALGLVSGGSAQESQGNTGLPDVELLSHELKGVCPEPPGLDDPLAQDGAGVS

activity as dual antagonists of both A2A and A1 receptors (in words) [1] | Ki [1] [nM] | Ki [2] [nM] | SMILES
potent activity as dual antagonists |  |  | Cc1cc(Cn2ncc3c(-c4cccc(C#N)c4F)nc(N)nc32)ccc1N [Compound 206, 3-(6-amino-1-(4-amino-3-methylbenzyl)-1H-pyrazolo[3,4-d]pyrimidin-4-yl)-2-fluorobenzonitrile]
potent activity as dual antagonists |  |  | N#Cc1cccc(-c2nc(N)nc3c2cnn3Cc2c(F)cccc2F)c1F [Compound 213, 3-(6-amino-1-(2,6-difluorobenzyl)-1H-pyrazolo[3,4-d]pyrimidin-4-yl)-2-fluorobenzonitrile]
potent activity as dual antagonists | < 20 | ≤ 100 | N#Cc1cccc(-c2nc(N)nc3c2cnn3Cc2c(F)cc(N)cc2F)c1F [Compound 208, 3-(6-amino-1-(4-amino-2,6-difluorobenzyl)-1H-pyrazolo[3,4-d]pyrimidin-4-yl)-2-fluorobenzonitrile]
